# Source: patent US11235976B2, “Nanocarbon-iron composite system as well as composition, preparation method and use thereof” (Chongqing Lummy Pharmaceutical Co., LTD, priority 2017, dated 2022)
# Columns and labels:
# Assay in all cases: Cell experiment, cell survival rate
# Format in all cases: cell-based
# Conditions in all cases: 48 h
# A549 lung cancer cells = tested on: A549 lung cancer cells
# Protocol: (§1) Cells growing in a log phase are collected, the concentration of the cell suspension is adjusted, 100 μL of cell suspension is added to each well and the cells are plated (edge wells are filled with sterile PBS) at a density of 1×10^3-10^4 cells/well. The cells are incubated for 24 hours at 37° C. under the condition of 5% CO2, a nanocarbon-iron solution having a concentration gradient (nanocarbon content: 125, 62.5, 15.63 and 3.91 μg/mL; and ferric ion content: 13.65, 6.83, 1.71 and 0.43 μg/mL) is added, and three sub-wells are set. Then the cells are incubated for 48 hours at 37° C. under the condition of 5% CO2. 10 μL of CCK8 solution is added to each well and then the cells are continuously incubated for 2 hours. The absorbance of each well is measured at OD=450 nm with the microplate reader. In addition, a negative control group, nanocarbon control groups having the same concentration and iron preparation control groups having the same concentration are set.
# as §1, with “and 1” for “100”, “of a 6-well plate” for “and the cells are plated (edge wells are filled with sterile PBS)”, “3×10^4” for “1×10^3-10^4”, “1.71,” for “1.71 and”, “The” for “10 μL of CCK8 solution is added to each well and then the”, “trypsinized and counted.” for “continuously incubated for 2 hours. The absorbance of each well is measured at OD=450 nm with the microplate reader.”
# [1] = tested on: HCT116 colon cancer cells
# Protocol: as §1
# as §1, with “and 1” for “100”, “of a 6-well plate” for “and the cells are plated (edge wells are filled with sterile PBS)”, “3×10^4” for “1×10^3-10^4”, “1.71,” for “1.71 and”, “The” for “10 μL of CCK8 solution is added to each well and then the”, “trypsinized and counted.” for “continuously incubated for 2 hours. The absorbance of each well is measured at OD=450 nm with the microplate reader.”
# [2] = tested on: Hela cervical cancer cells
# Protocol: as §1
# as §1, with “and 1” for “100”, “of a 6-well plate” for “and the cells are plated (edge wells are filled with sterile PBS)”, “3×10^4” for “1×10^3-10^4”, “1.71,” for “1.71 and”, “The” for “10 μL of CCK8 solution is added to each well and then the”, “trypsinized and counted.” for “continuously incubated for 2 hours. The absorbance of each well is measured at OD=450 nm with the microplate reader.”
# [3] = tested on: MDA-MB-231 breast cancer cells
# Protocol: as §1
# as §1, with “and 1” for “100”, “of a 6-well plate” for “and the cells are plated (edge wells are filled with sterile PBS)”, “3×10^4” for “1×10^3-10^4”, “1.71,” for “1.71 and”, “The” for “10 μL of CCK8 solution is added to each well and then the”, “trypsinized and counted.” for “continuously incubated for 2 hours. The absorbance of each well is measured at OD=450 nm with the microplate reader.”
# [4] = tested on: SGC-7901 stomach cancer cells
# Protocol: as §1
# as §1, with “and 1” for “100”, “of a 6-well plate” for “and the cells are plated (edge wells are filled with sterile PBS)”, “3×10^4” for “1×10^3-10^4”, “1.71,” for “1.71 and”, “The” for “10 μL of CCK8 solution is added to each well and then the”, “trypsinized and counted.” for “continuously incubated for 2 hours. The absorbance of each well is measured at OD=450 nm with the microplate reader.”
# [5] = tested on: SKOV3 ovarian cancer cells
# Protocol: as §1
# as §1, with “and 1” for “100”, “of a 6-well plate” for “and the cells are plated (edge wells are filled with sterile PBS)”, “3×10^4” for “1×10^3-10^4”, “1.71,” for “1.71 and”, “The” for “10 μL of CCK8 solution is added to each well and then the”, “trypsinized and counted.” for “continuously incubated for 2 hours. The absorbance of each well is measured at OD=450 nm with the microplate reader.”
# [6] = iron preparation alone 0.43 μg/mL
# [7] = iron preparation alone 1.71 μg/mL
# [8] = iron preparation alone 6.83 μg/mL
# [9] = iron preparation alone 13.65 μg/mL
substance,measurement,setting,value
ammonium ferric citrate,Cell Survival Rate,A549 lung cancer cells; [6],97.21%
same,Cell Survival Rate,A549 lung cancer cells; [7],99.64%
same,Cell Survival Rate,A549 lung cancer cells; [8],95.76%
same,Cell Survival Rate,A549 lung cancer cells; [9],94.67%
same,Cell Survival Rate,[1]; [6],97.31%
same,Cell Survival Rate,[1]; [7],98.12%
same,Cell Survival Rate,[1]; [8],94.03%
same,Cell Survival Rate,[1]; [9],95.31%
same,Cell Survival Rate,[2]; [6],100%
same,Cell Survival Rate,[2]; [7],99.34%
same,Cell Survival Rate,[2]; [8],97.46%
same,Cell Survival Rate,[2]; [9],93.67%
same,Cell Survival Rate,[3]; [6],100%
same,Cell Survival Rate,[3]; [7],100%
same,Cell Survival Rate,[3]; [8],97.28%
same,Cell Survival Rate,[3]; [9],95.12%
same,Cell Survival Rate,[4]; [6],97.85%
same,Cell Survival Rate,[4]; [7],95.31%
same,Cell Survival Rate,[4]; [8],96.41%
same,Cell Survival Rate,[4]; [9],100%
same,Cell Survival Rate,[5]; [6],95.67%
same,Cell Survival Rate,[5]; [7],99.46%
same,Cell Survival Rate,[5]; [8],94.36%
